“Also recorded” adds a separate entry of the source. Where two headings read alike, the source gives them in different places.
Assays:
[1] = test system: OVCAR-3; assay: SRB cytotoxicity / proliferation assay, OVCAR-3 cells; details: for Interaction of the drug with MPL (synergy), in words: OVCAR-3 cells, concentrations as stated in the figure
Description: (§2) Cells were seeded in 96-well plates (2,000-3,000 cells/well) and culture overnight prior to treatment with MPL. Control cultures were treated with ethanol alone.
(§3) Cytotoxicity was assessed using the sulforhodamine B (SRB) assay and reported as half maximal inhibitory concentration (IC50; Table 3). Cells were seeded in 96-well plates (2,000-3,000 cells/well), treated with the indicated compound(s) for 72 h, fixed, washed and stained with 100 μl of 0.4% (w/v) SRB dissolved in 1% acetic acid. Unbound dye was removed by five washes with 1% acetic acid before air-drying.
(§4) In order to evaluate the effect of MPL on the in vitro efficacy of an established drug was evaluated using cell viability and cell proliferation assays. Cell viability was conducted according to standard Trypan Blue method. Cell proliferation was assessed using the sulforhodamine B (SRB) assay. For viability experiments, cells were seeded in 6 well plates, whereas for proliferation assays cells were grown in 96 well plates. Following over-night attachment, cells were treated with the intended drug at various concentrations either alone or in combination with monepantel (MPL) for 72 h. Parallel to this, cells treated with MPL alone were also deployed for comparative purposes. Following incubation for 72 h in a standard cell culture incubator, effect of mono and combined drug treatments on cell viability and/or cell proliferation was assessed through using Trypan Blue or SRB assays respectively.
(§5) For viability assay, at the end of treatment period, cells were washed with PBS, trypsinized and counted using Trypan blue and hemocytometer. For the SRB assay cells were fixed, washed and stained with 100 μl of 0.4% (w/v) SRB dissolved in 1% acetic acid. Unbound dye was removed by five washes with 1% acetic acid before air drying. […] Monepantel (gift by Novartis, Basel, Switzerland) was dissolved in 100% ethanol and then diluted with the cell culture media.
(§6) MPL (5 μM) and combination drugs were applied for 72 h unless indicated.

[2] = test system: OVCAR-3 and A2780; assay type: cell-based, human; details: Example 2; cell line not given
[3] = test system: A2780; assay: SRB cytotoxicity / proliferation assay, A2780 cells; details: for Interaction of the drug with MPL (synergy), in words: 72 h
Description: as §2
(§7) Cells were seeded in 96-well plates (2,000-3,000 cells/well), treated with the indicated compound(s) for 72 h, fixed, washed and stained with 100 μl of 0.4% (w/v) SRB dissolved in 1% acetic acid. Unbound dye was removed by five washes with 1% acetic acid before air-drying.
Cell viability was conducted according to standard Trypan Blue method. Cell proliferation was assessed using the sulforhodamine B (SRB) assay. For viability experiments, cells were seeded in 6 well plates, whereas for proliferation assays cells were grown in 96 well plates. Following over-night attachment, cells were treated with the intended drug at various concentrations either alone or in combination with monepantel (MPL) for 72 h. Parallel to this, cells treated with MPL alone were also deployed for comparative purposes. Following incubation for 72 h in a standard cell culture incubator, effect of mono and combined drug treatments on cell viability and/or cell proliferation was assessed through using Trypan Blue or SRB assays respectively.
as §5

[4] = test system: Hep3B; assay: SRB cytotoxicity assay, Hep3B cells; assay type: cell-based, human; details: Hep3B cells; MPL at 5 μM; 48 h; FIG. 24
Description: (§1) All cell lines described herein were purchased from ATCC. […] Control cultures were treated with ethanol alone.

[5] = test system: LN-18; assay: SRB cytotoxicity assay, LN-18 cells; assay type: cell-based, human; details: 72 h; for Interaction of the drug with MPL (synergy), in words: LN18 cells, FIG. 21
Description: as §1

[6] = test system: AsPC1; assay: SRB cytotoxicity assay, AsPC1 cells; assay type: cell-based, human; details: AsPC-1 cells; 72 h; FIG. 23
Description: as §1

[7] = test system: PET; assay: SRB cytotoxicity assay, PET cells; assay type: cell-based, human; details: PET mesothelioma cells; 72 h; FIG. 25
Description: as §1

[8] = test system: YOU; assay: SRB cytotoxicity assay, YOU cells; assay type: cell-based, human; details: YOU mesothelioma cells; 72 h; FIG. 25
Description: as §1

[9] = test system: U87; assay: SRB cytotoxicity assay, U87 cells; assay type: cell-based, human; details: U87 cells; 72 h; FIG. 21
Description: as §1

[10] = test system: REN; assay: SRB cytotoxicity assay, REN cells; assay type: cell-based, human; details: REN mesothelioma cells; 72 h; FIG. 25
Description: as §1

[11] = test system: C170; assay: SRB cytotoxicity assay, C170 cells; assay type: cell-based; details: C170 cells; MPL 5 μM; 5-FU 20 μM, gemcitabine 0.5 μM, oxaliplatin 1 μM; 72 h; FIG. 27
Description: as §1

[12] = test system: HT-29; assay: cells; assay type: cell-based; details: 72 h
Description: as §1

[13] = test system: CFPAC-1; assay: SRB cytotoxicity assay, CFPAC-1 cells; details: CFPAC-1 cells, 72 h
Description: as §2, §3, §6

[14] = test system: HOSE; assay: SRB cytotoxicity assay, HOSE non-malignant control cells; details: for Interaction of the drug with MPL (synergy), in words: HOSE non-malignant control cells, concentrations as stated at the place or in the figure
Description: (§8) All cell lines described herein were purchased from ATCC. Cells were seeded in 96-well plates (2,000-3,000 cells/well) and culture overnight prior to treatment with MPL. Control cultures were treated with ethanol alone.
as §7
(§9) Corresponding cytotoxicity of the major metabolite MPL-SO2 has also been tested where indicated. […] HUVEC, human fetal astrocytes and HOSE cells are non-transformed, non-immortalized and non-malignant, freshly isolated/low passage number cell populations, from apparently healthy non-diseased tissue. These healthy cell populations were included in the experimental series as controls for non-specific toxicity. Both MPL and MPL-SO2 were suspended in ethanol and applied in final concentrations of 0.5 to 1% ethanol in the respective culture media.
as §4
(§10) For viability assay, at the end of treatment period, cells were washed with PBS, trypsinized and counted using Trypan blue and hemocytometer. For the SRB assay cells were fixed, washed and stained with 100 μl of 0.4% (w/v) SRB dissolved in 1% acetic acid. Unbound dye was removed by five washes with 1% acetic acid before air drying. […] Monepantel (gift by Novartis, Basel, Switzerland) was dissolved in 100% ethanol and then diluted with the cell culture media. Other agents employed in the study were purchased either from Sigma Australia or Sapphire Australia, prepared and preserved for cell culture use according to supplier instructions.
as §6

[15] = test system: all cell lines and cells tested; assay: SRB cytotoxicity assay, all cells of Table 3; assay type: cell-based
Description: as §1

[16] = test system: 1A9; assay: SRB cytotoxicity assay, 1A9 cells; assay type: cell-based; details: Homo sapiens, 1A9, malignant, ovarian, 72 h
Description: as §1

[17] = test system: SKOV-3; assay: SRB cytotoxicity assay, SKOV-3 cells; assay type: cell-based; details: Homo sapiens, SK-OV-3, SKOV-3, malignant, ovarian, 72 h
Description: as §1

[18] = test system: MCF-7; assay: SRB cytotoxicity assay, MCF-7 cells; assay type: cell-based; details: Homo sapiens, MCF7, 72 h, MCF-7, malignant, breast
Description: as §1

[19] = test system: IGROV-1; assay: SRB cytotoxicity assay, IGROV-1 cells; assay type: cell-based; details: Homo sapiens, IGROV-1, malignant, ovarian, 72 h
Description: as §1

[20] = test system: CHO; assay: SRB cytotoxicity assay, CHO cells; assay type: cell-based; details: Cricetulus griseus, immortalised, ovarian, 72 h
Description: as §1

[21] = test system: HUVEC; assay: SRB cytotoxicity assay, HUVEC; assay type: cell-based; details: Homo sapiens, non-malignant, endothelial, 72 h
Description: as §1

[22] = test system: HaCat; assay: SRB cytotoxicity assay, HaCat cells; assay type: cell-based; details: Homo sapiens, immortalised, epidermal, 72 h
Description: as §1

[23] = test system: HOSE
Description: as §8, §7, §9, §4, §10, §6

[24] = A2780 cells, concentrations as stated at the place or in the figure

NC(Cc1c[nH]cn1)C(=O)O (racemic) [DL-histidine]
Interaction of the drug with MPL (synergy), in words ([1]; 72 h): no synergistic effect
effect of combination with MPL, in words [2]: no effect

CCCSc1ccc2nc(NC(=O)OC)[nH]c2c1 [A8Z, albendazole]
Interaction of the drug with MPL (synergy), in words [3, 24]: good synergistic effect

CN/C(=N/CCSCc1nc[nH]c1C)NC#N [Cimetidine]
Interaction of the drug with MPL (synergy), in words [3, 24]: significant combination synergistic effect

N.N.[Cl][Pt][Cl] [Cisplatin, cis-diamminedichloroplatinum(II)]
Interaction of the drug with MPL (synergy), in words [3, 24]: some increase of effect
Interaction of the drug with MPL (synergy), in words [4]: No synergy was observed

COc1cc2c(c(OC)c1OC)-c1ccc(OC)c(=O)cc1[C@@H](NC(C)=O)CC2 [Colchicine]
Interaction of the drug with MPL (synergy), in words [3, 24]: cytotoxic effect
Interaction of the drug with MPL (synergy), in words ([3]; A2780 cells, concentrations as stated at the place or in the figure, listed as colchicine): synergistic effect; also recorded: synergistic cytotoxicity

COc1cccc2c1C(=O)c1c(O)c3c(c(O)c1C2=O)C[C@@](O)(C(=O)CO)C[C@@H]3O[C@H]1C[C@H](N)[C@H](O)[C@H](C)O1 [Doxorubicin]
Interaction of the drug with MPL (synergy), in words [5]: synergistic interaction; also recorded: synergistic inhibition
Interaction of the drug with MPL (synergy), in words [6]: do not display a synergistic interaction
Interaction of the drug with MPL (synergy), in words ([3]; A2780 cells, concentrations as stated in the figure): synergy; also recorded: synergistic interaction; also recorded: synergistic inhibition
doxorubicin concentration in the absence of MPL equivalent to doxorubicin (10 nM) in the presence of MPL (5 μM) ([3]; A2780 cells, FIG. 1): 1000 nM
IC50 ([3]; read-out: IC50 value, cell proliferation, A2780 cells, with addition of 5 μM MPL, approximate values, FIG. 1): ~0.001 µM
IC50 ([3]; read-out: IC50 value, cell proliferation, A2780 cells, without MPL, approximate values, FIG. 1): ~0.5 µM
Interaction of the drug with MPL (synergy), in words [7]: synergistic interaction; also recorded: synergistic inhibition
Interaction of the drug with MPL (synergy), in words [8]: synergistic interaction; also recorded: synergistic inhibition
Interaction of the drug with MPL (synergy), in words [4]: synergistic cytotoxicity; also recorded: synergistically inhibits; also recorded: synergistically cytotoxic
Interaction of the drug with MPL (synergy), in words [9]: synergistic interaction; also recorded: synergistic inhibition
Interaction of the drug with MPL (synergy), in words ([1]; 72 h): synergistic interaction; also recorded: synergistic inhibition; also recorded: synergistic cytotoxic effect
Interaction of the drug with MPL (synergy), in words [10]: synergistic interaction; also recorded: synergistic inhibition

O=c1[nH]cc(F)c(=O)[nH]1 [Fluorouracil]
Interaction of the drug(s) with MPL (synergy), in words [11]: synergistic cytotoxicity
effect of combination with MPL, in words [2]: significant increase in the effect

Nc1ccn([C@@H]2O[C@H](CO)[C@@H](O)C2(F)F)c(=O)n1 [Gemcitabine]
Interaction of the drug with MPL (synergy), in words [5]: synergistic interaction; also recorded: synergistically inhibits
Interaction of the drug with MPL (synergy), in words [6]: strong synergistic interaction; also recorded: synergistically inhibits
Interaction of the drug with MPL (synergy), in words [3, 24]: strong synergistic interaction
Interaction of the drug with MPL (synergy), in words ([3]; A2780 cells, concentrations as stated at the place or in the figure, listed as gemcitabine): synergistically inhibits
Interaction of the drug with MPL (synergy), in words [7]: do not display a synergistic interaction
Interaction of the drug with MPL (synergy), in words [8]: do not display a synergistic interaction
Interaction of the drug with MPL (synergy), in words [4]: No synergy was observed
Interaction of the drug(s) with MPL (synergy), in words [11]: synergistic cytotoxicity
Interaction of the drug with MPL (synergy), in words [10]: do not display a synergistic interaction
Interaction of the drug(s) with MPL (synergy), in words ([12]; HT29 cells, MPL 5 μM, 5-FU 20 μM, gemcitabine 0.5 μM, oxaliplatin 1 μM, FIG. 27): synergistic cytotoxicity
effect of combination with MPL, in words [2]: notable increase in efficacy
Interaction of the drug with MPL (synergy), in words ([13]; 5 μM MPL, FIG. 23): synergistic interaction; also recorded: synergistically exerted a cytotoxic effect
Interaction of the drug(s) with MPL (synergy), in words ([13]; 10 μM MPL, data not shown): synergistically exerted a cytotoxic effect
Interaction of the drug with MPL (synergy), in words ([14]; 72 h): do not display the same synergistic interaction
Interaction of the drug with MPL (synergy), in words ([14]; 72 h, listed as gemcitabine): do not display a synergistic interaction; also recorded: without displaying a synergistic interaction

N[C@@H](Cc1c[nH]cn1)C(=O)O [L-histidine]
Interaction of the drug with MPL (synergy), in words ([1]; 72 h): no synergistic effect
effect of combination with MPL, in words [2]: no effect

c1ccc([C@H]2CN3CCSC3=N2)cc1 [Levamisole]
Interaction of the drug with MPL (synergy), in words [3, 24]: did not display a synergistic effect
Interaction of the drug with MPL (synergy), in words ([3]; A2780 cells, concentrations as stated at the place or in the figure, listed as levamisole): does not display a synergistic cytotoxicity
synergistic cytotoxic effect with MPL, predicted ([3]; A2780 cells, levamisole at higher concentrations): may exert a synergistic cytotoxic effect
Synergistic cytotoxicity between MPL and combined drug ([1]; OVCAR-3, 5 μM MPL + drug, 72 h, Table 7): ✓^3
Interaction of the drug with MPL (synergy), in words ([1]; 72 h): significant synergistic effect; also recorded: does so against OVCAR-3 cells

C[C@](C#N)(COc1cc(C#N)ccc1C(F)(F)F)NC(=O)c1ccc(S(=O)(=O)C(F)(F)F)cc1 [MPL-SO2, monepantel sulphone]
IC50 ([5]; Homo sapiens, LN-18, malignant, glial, SRB): 6.6 ± 0.7 µM
IC50 ([3]; Homo sapiens, A2780, 72 h): 4.2 ± 2.1 µM
cytotoxicity compared with MPL [15]: generally comparable to the parent compound
IC50 [16]: 3.4 ± 0.1 µM
IC50 [17]: 26 µM
IC50 ([1]; Homo sapiens, OVCAR-3, 72 h): 5.5 ± 1.3 µM
IC50 ([12]; Homo sapiens, HT-29, malignant, colorectal, SRB): 2.8 ± 0.7 µM
IC50 [18]: 8 ± 0.7 µM
IC50 [19]: 4.4 ± 1.5 µM
IC50 [20]: 73.7 ± 6.9 µM
IC50 [21]: 47 µM
IC50 [22]: 42.7 ± 8 µM

CC#C[C@]1(O)CC[C@H]2[C@@H]3CCC4=CC(=O)CCC4=C3[C@@H](c3ccc(N(C)C)cc3)C[C@@]21C [Mifepristone]
Interaction of the drug with MPL (synergy), in words [3, 24]: significant combination synergistic effect

CN(C)c1ccc(O)c2c1C[C@H]1C[C@H]3[C@H](N(C)C)C(O)=C(C(N)=O)C(=O)[C@@]3(O)C(O)=C1C2=O [Mino, minocycline]
B) Double treatment with MPL: synergistic cytotoxicity, one symbol per experiment ([1]; OVCAR-3, MPL 5.0 μM + Mino (5 μM), 72 h): ✓✓✓
B) Double treatment with MPL: synergistic cytotoxicity, one symbol per experiment ([1]; OVCAR-3, MPL 5.0 μM + Mino (10 μM), 72 h): ✓✓✓
B) Double treatment with MPL: synergistic cytotoxicity, one symbol per experiment ([14]; HOSE, MPL 5.0 μM + Mino (5 μM), 72 h): ✓✓✓

O=C1[O][Pt]2([NH][C@@H]3CCCC[C@H]3[NH]2)[O]C1=O [Oxaliplatin]
Interaction of the drug with MPL (synergy / additive cytotoxicity), in words [23]: does not exert any additive cytotoxic effect
Interaction of the drug with MPL (synergy / additive cytotoxicity), in words ([14]; HOSE cells, MPL at 5 μM, 48 h, FIG. 24): does not display a synergistic cytotoxicity

CC/C(=C(\c1ccccc1)c1ccc(OCCN(C)C)cc1)c1ccccc1 [Tamoxifen]
effect of combination with MPL, in words [2]: significant increase in the effect

Cn1c(=O)c2c(ncn2C)n(C)c1=O [caffeine]
Interaction of the drug with MPL (synergy), in words ([1]; 72 h): no synergistic effect

NCC(=O)O [glycine]
Interaction of the drug with MPL (synergy), in words ([1]; 72 h): no synergistic effect
effect of combination with MPL, in words [2]: no effect

Ivermectin
effect of the drug alone ([3]; A2780 (ovarian)): inhibited
Interaction of the drug with MPL (synergy), in words [3, 24]: synergistic effect
